Values joined by “and” are separate entries in the source; they are usually repeats but may differ in a detail not shown here. Equal values may be shown once.
Key:
Format in all cases: cell-based, human
TMD8 cells = test: Cell proliferation, trypan blue cell count; conditions: for TMD8 Viable Cells: Mepazine at 1 µM; for expansion of culture (proliferation): TMD8, single 1 μM dose, 12 days, result in words
Description: (§1) Cell proliferation, viability, and apoptosis assays. Starting with ~20,000 DLBCL cells in 5% FBS
(§2) at day 0, cell number was counted using the trypan blue dye exclusion method with Vi-CELL cell

OCI-Ly1 cells = test: Cell proliferation, trypan blue cell count; conditions: for OCI-Ly1 Viable Cells: Mepazine at 1 µM; for expansion of culture (proliferation): OCI-Ly1, single 1 μM dose, 12 days, result in words
Description: as §1, §2

OCI-Ly7 cells = test: Cell proliferation, trypan blue cell count; conditions: for expansion of culture (proliferation): OCI-Ly7, single 1 μM dose, 12 days, result in words; for Viable cell count: second block headed OCI-Ly1, Day 0, Mepazine at 1 µM
Description: as §1, §2

[1] = tested on: IL2 mRNA in Jurkat T cells; test: IL2 mRNA induction by PMA/Iono, qRT-PCR; conditions: for IL2 mRNA (normalized): Jurkat, + PMA/Iono; for PMA/Iono-induced IL2 gene expression: pretreatment 4 hours, result in words
Experimental: qRT-PCR. Jurkat T cells grown in serum free media for 4 hours with indicated inhibitors prior to stimulation with PMA/Ionomycin for 4 hours. […]
Total RNA extraction from the […]
Kit. RNA was transcribed into cDNA using High-Capacity cDNA Reverse Transcription Kit (Applied Biosystems, Cat# 4368814) according to manufacturer’s instructions. RT-PCR was performed using TaqMan Universal PCR Master Mix (Applied Biosystems, Cat# 4304437) and run on a StepOnePlus Real-Time PCR machine (Applied Biosystems). The following probes from ThermoFisher Scientific were used for qRT-PCR: IL2 TaqMan probe Hs00174114, IL6 TaqMan

[2] = tested on: BCL10 and MALT1 protein in TMD8 cells; test: BCL10 and MALT1 protein levels, Western blot; conditions: 72 hours, result in words; for BCL10 and MALT1 protein levels: TMD8, 1 μM
Experimental: (§3) To test the possibility that M1i-124 destabilizes BCL10 and MALT1 within the cell as a consequence of disrupting BCL10-MALT1 interaction, we treated ABC-DLBCL cell lines (TMD8, OCI-Ly3) with M1i-124 for 72 hours and measured the cellular levels of the BCL10 and MALT1 proteins by Western blotting.
(§4) Figure 5 M1i-124 treatment leads to loss of BCL10 and MALT1 protein content in ABC-DLBCL cells. (A) Representative Western blots showing loss of BCL10 and MALT1 proteins, but not ERK1/2 protein, in TMD8 and OCI-Ly3 cells after 72 hours of treatment with 1 μM M1i-124. […] (B) Representative Western blots showing time-dependent loss of BCL10 and MALT1 in TMD8 cells treated with 1 μM M1i-124. (C) Representative Western blots showing dose-dependent loss of BCL10 and MALT1 proteins in TMD8 cells treated with […]. For A–C, band quantifications, normalized for GAPDH, are indicated below each blot. (D) Time-dependent change in BCL10 and MALT1 mRNA expression levels with 1 μM M1i-124 treatment in TMD8 cells. Statistical analysis was performed using unpaired t test between 0 hours and 72 hours (mean ± SEM; n = 3). *P < 0.05, ****P < 0.0001.

[3] = tested on: BCL10 and MALT1 protein in OCI-Ly3 cells; test: BCL10 and MALT1 protein levels, Western blot; conditions: OCI-Ly3, 1 μM, 72 hours, result in words
Experimental: as §3, §4

[4] = tested on: RelB cleavage in Jurkat T cells; test: CD3/CD28-induced RelB cleavage, Western blot (MALT1 protease activity); conditions: for RelB cleavage in stimulated Jurkat T cells: result in words
Experimental: (§5) Western blot analysis of RelB and N4BP1 cleavage was used to test the effect of small molecules on MALT1 protease activity. To this end, 3 million Jurkat T cells were pretreated with compounds for 24 hours in serum-free media, and then 5 μM MG-132 was added for 1 hour before stimulation with CD3/CD28 (Stemcell Technologies, catalog 10971), and lysed in RIPA buffer (Millipore, catalog 20-188) with protease and phosphatase inhibitor cocktail (Pierce, catalog 78446). IKKα/β phosphorylation and IκBα phosphorylation were used as measures of MALT1 scaffolding activity, while ERK1/2 phosphorylation was used as a control. Two million Jurkat T cells were treated with 1 μM M1i-124, 1 μM M1i-124d1, or DMSO in serum-free media for 16 hours, stimulated with CD3/CD28 for 0, 5, 10, or 20 minutes, and then immediately lysed in RIPA buffer with protease and phosphatase inhibitors. For experiments evaluating RelB cleavage and phosphorylation of IκBα in TMD8 cells, cells were treated with compounds for 24 hours in media containing 5% FBS. For RelB Western blot analysis, 5 μM MG-132 (Cell Signaling Technology, catalog 2194s) was added 4 hours before lysis in RIPA lysis buffer with protease/phosphatase inhibitors.

[5] = tested on: IκB phosphorylation in TMD8 cells; test: Constitutive IκB phosphorylation, Western blot; conditions: for IκB phosphorylation in TMD8 cells: result in words
Experimental: as §5

OCI-Ly3 cells = test: Cell proliferation, trypan blue cell count; conditions: Mepazine at 1 µM
[6] = tested on: IL-2 secretion from Jurkat T cells; test: Secreted IL-2 ELISA after PMA/Iono; conditions: for IL-2: PMA/Iono; for IL-2 secretion from Jurkat T cells: result in words
Experimental: Cytokine ELISAs. Cytokines in cell culture supernatants were measured 20-24h after treatment with 0, 0.01, 0.03, 0.1, 0.3, 1, or 3 µM of compounds using the following ELISA kits according to the manufacturer’s instructions: Human IL-2 ELISA (BioLegend Cat# 431804), Human IL-6 ELISA (BioLegend Cat# 430504), and Human IL-10 ELISA (BioLegend Cat# 430604). […]
Jurkat T cells were pretreated with specific doses of compounds for 8 hours in serum-free media, then stimulated with PMA/ionomycin for 16 hours prior to the collection of supernatants. […]

[7] = tested on: N4BP1 cleavage in Jurkat T cells; test: CD3/CD28-induced N4BP1 cleavage, Western blot (MALT1 protease activity); conditions: for N4BP1 cleavage ratio: Jurkat T cells, 1 μM pretreatment, + CD3/CD28; for N4BP1 cleavage in stimulated Jurkat T cells: result in words
Experimental: as §5

Structure (SMILES)	TMD8 Viable Cells (TMD8 cells; Day 0)	expansion of culture (proliferation) (TMD8 cells)	OCI-Ly1 Viable Cells (OCI-Ly1 cells; Day 0)	expansion of culture (proliferation) (OCI-Ly1 cells)	expansion of culture (proliferation) (OCI-Ly7 cells)	Viable cell count (OCI-Ly7 cells)	IL2 mRNA (normalized) ([1]; 1 μM)	PMA/Iono-induced IL2 gene expression [1]	BCL10 and MALT1 protein levels [2]	BCL10 and MALT1 protein levels [3]	RelB cleavage in stimulated Jurkat T cells [4]	IκB phosphorylation in TMD8 cells [5]	OCI-Ly3 Viable Cells (OCI-Ly3 cells; Day 0)	IL-2 ([6]; Jurkat, 0.01uM)	IL-2 ([6]; Jurkat, 0.03uM)	IL-2 ([6]; Jurkat, 0.1uM)	IL-2 ([6]; Jurkat, 0.3uM)	IL-2 ([6]; Jurkat, 1uM)	IL-2 ([6]; Jurkat, 3uM)	IL-2 secretion from Jurkat T cells [6]	other results
COc1ccc(CNS(=O)(=O)c2ccc(Cc3ccc(S(=O)(=O)NCc4ccc(OC)cc4)cc3)cc2)cc1 [M1i-124d1]	20000	significant reduction in the expansion	40000 and 20000	no effect on expansion	no effect on expansion	20000 and 40000	0.5238 and 0.3763 and 0.462	reduction in PMA/Iono–induced IL2 gene expression	lesser effect	lesser effect	suppressed the cleavage	marked reduction in IκB phosphorylation	20000	893.077 pg/mL and 1049.97 pg/mL and 735.049 pg/mL	736.84 pg/mL and 714.598 pg/mL and 588.162 pg/mL	433.515 pg/mL and 416.061 pg/mL and 330.961 pg/mL	349.469 pg/mL and 340.243 pg/mL and 270.034 pg/mL	458.584 pg/mL and 443.361 pg/mL and 398.637 pg/mL	550.731 pg/mL and 484.757 pg/mL and 435.445 pg/mL	dose-dependent reduction in IL-2 secretion	pIkB (normalized) ([5]; TMD8, 1 μM, 24 hours): 0.264 and 0.345; OCI-Ly3 Viable Cells (OCI-Ly3 cells; Day 12): 340000 and 290000 and 320000; N4BP1 cleavage ratio [7]: 0.7459 and 0.3808 and 0.4872 and 0.5302; N4BP1 cleavage in stimulated Jurkat T cells [7]: suppressed the cleavage
CN1CCCC(CN2c3ccccc3Sc3ccccc32)C1 (centres unmarked) [Mepazine, mepazine, reference compound]	20000		40000 and 20000			20000			not observed	not observed			20000								TMD8 Viable Cells (TMD8 cells; Day 12): 830000 and 460000 and 590000; OCI-Ly1 Viable Cells (OCI-Ly1 cells; Day 7): 99000 and 98000 and 71000; OCI-Ly1 Viable Cells (OCI-Ly1 cells; Day 10): 280000 and 250000 and 290000; IL2 mRNA (normalized) ([1]; 5 μM): 0.1528 and 0.1464 and 0.1468; Cl-RelB/FL-RelB ratio ([4]; Jurkat T cells, 1 μM pretreatment, + CD3/CD28): 0.1288 and 0.1917 and 0.1562 and 0.1166; activity at 1 µM ([6]; Homo sapiens, Jurkat, PMA/Iono treated, 1 uM, Suppl Fig. 4A, read-out: IL-2 protein level (% of control)): 67.8%; IL-2 protein level (% of control) ([6]; PMA/Iono treated, 1 uM, Suppl Fig. 4A): 72.9318 % of control and 62.9989 % of control; N4BP1 cleavage ratio [7]: 1.53 and 0.8223 and 0.868 and 0.8072
O=S(=O)(NCc1ccc2c(c1)OCO2)c1ccc(Cc2ccc(S(=O)(=O)NCc3ccc4c(c3)OCO4)cc2)cc1 [M1i-124]	20000	significant reduction in the expansion	40000 and 20000	no effect on expansion	no effect on expansion	20000 and 40000	0.1638 and 0.218 and 0.2454	reduction in PMA/Iono–induced IL2 gene expression	potently induced the loss of both MALT1 and BCL10 proteins	potently induced the loss of both MALT1 and BCL10 proteins	suppressed the cleavage	marked reduction in IκB phosphorylation	20000	670.787 pg/mL and 749.967 pg/mL and 766.89 pg/mL	564.302 pg/mL and 507.452 pg/mL and 318.494 pg/mL	327.873 pg/mL and 411.405 pg/mL and 266.705 pg/mL	173.693 pg/mL and 247.879 pg/mL and 193.913 pg/mL	222.117 pg/mL and 210.011 pg/mL and 120.037 pg/mL	304.615 pg/mL and 288.86 pg/mL and 235.369 pg/mL	dose-dependent reduction in IL-2 secretion	OCI-Ly1 Viable Cells (OCI-Ly1 cells; Day 12): 590000 and 720000 and 910000 and 860000 and 880000 and 890000; ERK1/2 protein levels ([2]; 1 μM): no change; IL-2 protein level (% of control) ([6]; PMA/Iono treated, Suppl Fig. 4A): 34.6066 % of control and 35.497 % of control and 25.5648 % of control; N4BP1 cleavage in stimulated Jurkat T cells [7]: suppressed the cleavage

From PMC11996864, “A small-molecule inhibitor of BCL10-MALT1 interaction abrogates progression of diffuse large B cell lymphoma” (The Journal of Clinical Investigation, 2025)
